Measurements taken from ChEMBL document CHEMBL1201862, “PubChem BioAssay data set” (2004).
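Step 1: Grow cells in 96-well plates. Step 2: Expose to compound for 48 hours at 5 concentrations. Step 3: Interpolate endpoints linearly; if unreached, use highest concentration. Abbreviation: GI50, concentration required for 50% inhibition of growth.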 The source made the active and inactive calls. No stated cut-off is given here; in the data, active = GI50 up to about 1.1 µM and inactive = higher.

Legend:
Assay in all cases: growth of human tumour cells (NCI), 48 h
HCC 2998 = system: HCC 2998
TK-10 = system: TK-10
SNB-78 = system: SNB-78
SF-295 = system: SF-295
RXF 393 = system: RXF 393
HT-29 = system: HT-29
HCT-15 = system: HCT-15
OVCAR-4 = system: OVCAR-4
IGROV-1 = system: IGROV-1
Malme-3M = system: Malme-3M
MOLT-4 = system: MOLT-4
HOP-62 = system: HOP-62
A498 = system: A498
M14 = system: M14
OVCAR-8 = system: OVCAR-8
UO-31 = system: UO-31

Row | SMILES | GI50 (HCC 2998) | GI50 (TK-10) | GI50 (SNB-78) | GI50 (SF-295) | GI50 (RXF 393) | GI50 (HT-29) | GI50 (HCT-15) [µM] | GI50 (OVCAR-4) | GI50 (IGROV-1) | GI50 (Malme-3M) | GI50 (MOLT-4) | GI50 (HOP-62) | GI50 (A498) | GI50 (M14) | GI50 (OVCAR-8) | GI50 (UO-31)
1 | CC1(C)C(c2ccccc2)=NN(O)c2ccccc21 | > 100 µM (inactive) | > 100 µM (inactive) | > 100 µM (inactive) | > 100 µM (inactive) | > 100 µM (inactive) | > 100 µM (inactive) | > 100 | > 100 µM (inactive) | > 100 µM (inactive) | > 100 µM (inactive) | > 100 µM (inactive) | > 100 µM (inactive) | > 100 µM (inactive) | > 100 µM (inactive) | > 100 µM (inactive) | 
2 | CC1CCN(CCC(=O)CC(c2ccccc2)c2c(O)c3ccccc3oc2=O)CC1 (stereo not drawn) |  | > 100 µM (inactive) | 34.4 µM (inactive) | > 100 µM (inactive) | > 100 µM (inactive) | > 100 µM (inactive) | > 100 | > 100 µM (inactive) | > 100 µM (inactive) |  | > 100 µM (inactive) | > 100 µM (inactive) | > 100 µM (inactive) | > 100 µM (inactive) | > 100 µM (inactive) | > 100 µM (inactive)
3 | O=C1c2ccccc2C2CCC1c1ccccc12 (stereo not drawn) | 53.1 µM (inactive) | 34.9 µM (inactive) | 29.9 µM (inactive) | 33.4 µM (inactive) | 24.4 µM (inactive) | 29.9 µM (inactive) | 30.6 | 30.1 µM (inactive) | 62.2 µM (inactive) | 18.3 µM (inactive) | 18 µM (inactive) | 48 µM (inactive) | 58.6 µM (inactive) | 36.5 µM (inactive) | 43.2 µM (inactive) | 21.1 µM (inactive)
4 | Cc1ccc(/C=C/C(=O)CCN(C)C)cc1 | 17.7 µM (inactive) | 16.5 µM (inactive) | 28.6 µM (inactive) | 33 µM (inactive) | 23.1 µM (inactive) | 18.2 µM (inactive) | 15.5 | 15.2 µM (inactive) | 20.8 µM (inactive) | 20.7 µM (inactive) | 23.2 µM (inactive) | 54.5 µM (inactive) | > 100 µM (inactive) | 21.5 µM (inactive) | 15.9 µM (inactive) | 18.3 µM (inactive)
5 | CC(C)(c1ccccc1)c1ccc(OC#N)cc1 | > 77.6 µM (inactive) | > 100 µM (inactive) | > 100 µM (inactive) | 60.8 µM (inactive) | 46.1 µM (inactive) | > 70.3 µM (inactive) | 15.2 | 71.4 µM (inactive) | > 100 µM (inactive) | > 100 µM (inactive) | 35.2 µM (inactive) | > 100 µM (inactive) | > 100 µM (inactive) | > 100 µM (inactive) | > 100 µM (inactive) | 49.1 µM (inactive)
6 | CCOC(=O)Oc1c(OC)cc(C(=O)NC2CCc3cc(OC)c(OC)c(OC)c3-c3ccc(SC)c(=O)cc32)cc1OC (stereo not drawn) | 0.0473 µM (active) | 0.474 µM (active) | 0.0489 µM (active) | 0.145 µM (active) |  | 0.0484 µM (active) | 0.445 | 0.789 µM (active) | 0.0506 µM (active) | 0.204 µM (active) | 0.157 µM (active) | 0.601 µM (active) | 0.223 µM (active) | 0.138 µM (active) | 0.092 µM (active) | 1.5 µM (inactive)
7 | COc1cc2c[n+](C)c3c4cc(OC)c(OC)cc4c(OCCCCCCCCOc4cc5c6cc(OC)c(OC)cc6c[n+](C)c5c5cc(OC)c(OC)cc45)cc3c2cc1OC | > 100 µM (inactive) | > 100 µM (inactive) | > 100 µM (inactive) | > 100 µM (inactive) | > 100 µM (inactive) | 67.9 µM (inactive) | > 100 | > 100 µM (inactive) | > 100 µM (inactive) | > 100 µM (inactive) | 31.6 µM (inactive) | > 100 µM (inactive) | > 100 µM (inactive) | > 100 µM (inactive) | > 100 µM (inactive) | > 100 µM (inactive)
